Test results from patent US20070128217A1 (priority 2003, published 2007).

Assays:
[1] = tested on: antibodies in sera from SARS patients (sera 1a, 1b, 2, 6, 37, 62, London, SARS-yellow, SARS-green); format: binding, human; design: Binding of serum 6 to linear peptides of protein X1 of SARS-CoV Urbani / Binding of serum 37 to linear peptides of protein X1 of SARS-CoV Urbani / Binding of serum 6 to looped/cyclic peptide (PEPSCAN-ELISA) / Binding of serum 37 to looped/cyclic peptide (PEPSCAN-ELISA) / Binding of serum 37 to looped/cyclic peptides of protein X1 of SARS-CoV Urbani / Binding of serum 6 to linear peptides of protein X2 / Binding of serum 37 to linear peptides of protein X2 / Binding of serum 37 to looped/cyclic peptides of protein X2 of SARS-CoV Urbani / Binding of serum 6 to linear peptides of protein M of SARS-CoV Urbani / Binding of serum 37 to linear peptides of protein M of SARS-CoV Urbani / Binding of serum 6 to looped/cyclic peptides of protein M of SARS-CoV Urbani / Binding of serum 37 to looped/cyclic peptides of protein M of SARS-CoV Urbani / Binding of serum 6 to linear peptides of protein X3 of SARS-CoV Urbani / Binding of serum 37 to linear peptides of protein X3 of SARS-CoV Urbani / Binding of serum 37 to looped/cyclic peptides of protein X3 of SARS-CoV Urbani / Binding of serum 6 to linear peptides of protein X4 of SARS-CoV Urbani / Binding of serum 37 to linear peptides of protein X4 of SARS-CoV Urbani / Binding of serum 37 to looped/cyclic peptides of protein X4 of SARS-CoV Urbani / Binding of serum 6 to linear peptides of protein X5 of SARS-CoV Urbani / Binding of serum 37 to linear peptides of protein X5 of SARS-CoV Urbani / Binding of serum 37 to looped/cyclic peptides of protein X5 of SARS-CoV Urbani / Binding of serum 6 to linear peptides of protein N of SARS-CoV Urbani / Binding of serum 37 to linear peptides of protein N of SARS-CoV Urbani / Binding of serum 6 to linear peptide (PEPSCAN-ELISA) / Binding of serum 1a to looped/cyclic peptides of protein N of SARS-CoV Urbani / Binding of serum 1b to looped/cyclic peptides of protein N of SARS-CoV Urbani / Binding of serum 2 to looped/cyclic peptides of protein N of SARS-CoV Urbani / Binding of serum 6 to looped/cyclic peptides of protein N of SARS-CoV Urbani / Binding of serum 37 to looped/cyclic peptides of protein N of SARS-CoV Urbani / Binding of serum 62 to looped/cyclic peptides of protein N of SARS-CoV Urbani / Binding of serum London to looped/cyclic peptides of protein N of SARS-CoV Urbani / Binding of serum SARS-green to looped/cyclic peptides of protein N of SARS-CoV Urbani: unit not given here
[2] = tested on: control sera (pooled serum of ten healthy LUMC hospital workers; commercial negative donor pooled serum from the Dutch bloodbank); format: binding, human; design: Binding of Control serum LUMC to linear peptides / Binding of Control serum Blood-bank to linear peptides / Binding of Control serum LUMC to looped peptides / Binding of Control Serum Blood-Bank to Looped peptides / Binding of Control serum LUMC to linear peptides of the protein M of SARS-CoV Urbani / Binding of Control serum Blood-bank to linear peptides of the protein M of SARS-CoV Urbani / Binding of Control serum LUMC to looped peptides of the protein M of SARS-CoV Urbani / Binding of Control Serum Blood-Bank to Looped peptides of the protein M of SARS-CoV Urbani: unit not given here
[3] = tested on: rabbit serum obtained by immunizing a rabbit with the SARS-CoV strain Frankfurt 1; format: binding; design: Binding of a rabbit serum to linear peptides / Binding of a rabbit serum to looped peptides / Rabbit serum linear peptides / Rabbit serum looped peptides / Binding of a rabbit serum to linear peptides of protein N of SARS-CoV Urbani (Rabbit serum linear peptides) / Binding of a rabbit serum to looped/cyclic peptides of protein N of SARS-CoV Urbani (Rabbit serum looped peptides): unit not given here

For NTYSTAWLCALGKVL, the “Binding of serum 1a to linear peptides of protein X5 of SARS-CoV Urbani” value [1] was 0.7, the “Binding of serum 1a to looped/cyclic peptides of protein X5 of SARS-CoV Urbani” value [1] was 0.4 and the “Binding of serum 1b to linear peptides of protein X5 of SARS-CoV Urbani” value [1] was 0.4. The “Binding of serum 1b to looped/cyclic peptides of protein X5 of SARS-CoV Urbani” value [1] was 0.3, the “Binding of serum 2 to linear peptides of protein X5 of SARS-CoV Urbani” value [1] was 0.5 and the “Binding of serum 2 to looped/cyclic peptides of protein X5 of SARS-CoV Urbani” value [1] was 0.5. The “Binding of serum 6 to linear peptides of protein X5 of SARS-CoV Urbani” value [1] was 0.6, the “Binding of serum 6 to looped/cyclic peptides of protein X5 of SARS-CoV Urbani” value [1] was 1.1 and the “Binding of serum 37 to linear peptides of protein X5 of SARS-CoV Urbani” value [1] was 0.6. For the same sequence, the “Binding of serum 37 to looped/cyclic peptides of protein X5 of SARS-CoV Urbani” value [1] was 0.5, the “Binding of serum 62 to linear peptides of protein X5 of SARS-CoV Urbani” value [1] was 0.7 and the “Binding of serum 62 to looped/cyclic peptides of protein X5 of SARS-CoV Urbani” value [1] was 0.6. For the same sequence, the “Binding of serum London to linear peptides of protein X5 of SARS-CoV Urbani” value [1] was 0.6, the “Binding of serum London to looped/cyclic peptides of protein X5 of SARS-CoV Urbani” value [1] was 2.3 and the “Binding of serum SARS-green to linear peptides of protein X5 of SARS-CoV Urbani” value [1] was 0.4. For the same sequence, the “Binding of serum SARS-green to looped/cyclic peptides of protein X5 of SARS-CoV Urbani” value [1] was 0.3, the “Binding of serum SARS-yellow to linear peptides of protein X5 of SARS-CoV Urbani” value [1] was 0.3 and the “Binding of serum SARS-yellow to looped/cyclic peptides of protein X5 of SARS-CoV Urbani” value [1] was 0.6. The “Binding of Control Serum Blood-Bank to Looped peptides” value [2] was 0.4, the “Binding of Control serum Blood-bank to linear peptides” value [2] was 0.8 and the “Binding of Control serum LUMC to linear peptides” value [2] was 0.4. For the same sequence, the “Binding of Control serum LUMC to looped peptides” value [2] was 0.5, the “Rabbit serum linear peptides” value [3] was 0.6 and the “Rabbit serum looped peptides” value [3] was 0.5.
For LLFVTIYSHLLLVAA, the “Binding of serum 1a to linear peptides of protein X1 of SARS-CoV Urbani” value [1] was 0.7, the “Binding of serum 1a to looped/cyclic peptide (PEPSCAN-ELISA)” value [1] was 0.4 and the “Binding of serum 1b to linear peptides of protein X1 of SARS-CoV Urbani” value [1] was 0.2. For the same sequence, the “Binding of serum 1b to looped/cyclic peptide (PEPSCAN-ELISA)” value [1] was 0.3, the “Binding of serum 2 to linear peptides of protein X1 of SARS-CoV Urbani” value [1] was 0.5 and the “Binding of serum 2 to looped/cyclic peptide (PEPSCAN-ELISA)” value [1] was 0.3. The “Binding of serum 6 to linear peptides of protein X1 of SARS-CoV Urbani” value [1] was 0.4, the “Binding of serum 6 to looped/cyclic peptide (PEPSCAN-ELISA)” value [1] was 0.2 and the “Binding of serum 37 to linear peptides of protein X1 of SARS-CoV Urbani” value [1] was 0.6. The “Binding of serum 37 to looped/cyclic peptide (PEPSCAN-ELISA)” value [1] was 0.4, the “Binding of serum 62 to linear peptides of protein X1 of SARS-CoV Urbani” value [1] was 0.5 and the “Binding of serum 62 to looped/cyclic peptide (PEPSCAN-ELISA)” value [1] was 0.5. For the same sequence, the “Binding of serum London to linear peptides of protein X1 of SARS-CoV Urbani” value [1] was 0.2, the “Binding of serum London to looped/cyclic peptide (PEPSCAN-ELISA)” value [1] was 0.2 and the “Binding of serum SARS-green to linear peptides of protein X1 of SARS-CoV Urbani” value [1] was 0.3. For the same sequence, the “Binding of serum SARS-green to looped/cyclic peptide (PEPSCAN-ELISA)” value [1] was 0.2, the “Binding of serum SARS-yellow to linear peptides of protein X1 of SARS-CoV Urbani” value [1] was 0.3 and the “Binding of serum SARS-yellow to looped/cyclic peptide (PEPSCAN-ELISA)” value [1] was 0.4. For the same sequence, the “Binding of Control Serum Blood-Bank to Looped peptides” value [2] was 0.4, the “Binding of Control serum Blood-bank to linear peptides” value [2] was 0.5 and the “Binding of Control serum LUMC to linear peptides” value [2] was 0.4. The “Binding of Control serum LUMC to looped peptides” value [2] was 0.6, the “Binding of a rabbit serum to linear peptides” value [3] was 0.1 and the “Binding of a rabbit serum to looped peptides” value [3] was 0.5.
